Results taken from patent US10731187B2, “Recombinant strain producing O-aminobenzoate and fermentative production of aniline from renewable resources via 2-aminobenzoic acid” (Covestro Deutschland AG, priority 2014, dated 2020).
≈ marks a conversion by molar mass, not a printed value.

Tests used:
[1] = system: Corynebacterium glutamicum; test: Small-scale fermentation (1 L fermenters, pH 7, glucose fed) with supplementation; type: cell-based; conditions: pH 7, fermenter
Source text: The results obtained in the shake flask experiments with C. glutamicum were reproduced in small-scale fermenters (FIG. 21). […]. The glucose-fed allowed the strain to grow to higher cell densities.
. This confirmed the results obtained in shake flasks (see FIG. 22). […] It was concluded that 1-dodecanol is a suitable oAB extraction solvent.
In a further experiment the concentration of oAB was increased to investigate the effect on the C. glutamicum strain. The four fermenters were hereto supplemented with 0 g/L, 15 g/L, 35 g/L and 80 g/L of oAB. […] The rest of the cultivation conditions was kept as described above. […] Cultures supplemented with 15 g/L oAB have shown an extensive lag-phase over 34-48 h before growth was recovered and cells entered the exponential phase (see FIG. 24). An oAB degradation during fermentation was again excluded by HPLC measurements of culture supernatants (data not shown).

[2] = system: Corynebacterium glutamicum; test: Shake flask growth (OD600) with supplementation of toxic substances; type: cell-based, Corynebacterium glutamicum DSM 20300 (=ATCC 13032)
Source text: Several strains commonly used industrial biotechnology were investigated regarding their natural tolerance towards oAB and to organic solvents in question for later product extraction (e.g. 1-dodecanol or octanol). Furthermore, the influence of the used pH value was investigated. It was known from previous experiments that at least for E. coli the toxicity of aromatic compounds depends strongly on the pH value, probably because protonated acids can much more efficiently penetrate the cell membrane and accordingly their toxicity rises severely. The extraction of oAB in an organic phase is supposed to work best at low pH values, close to the isoelectric point of oAB. The most relevant host strains considered were: Escherichia coli K12, Corynebacterium glutamicum DSM 20300 (=ATCC 13032), Pseudomonas putida KT2440, Bacillus subtilis subsp. 168, Saccharomyces cerevisiae DSM 70449, and Pichia pastoris X33 (DSM 70382).
To investigate the chosen strains towards the mentioned characteristics shake flasks and small scale fermentation experiments were performed and the organisms were supplemented with the toxic substances (aminobenzoates, solvents) at differed concentrations, different pH values, and the behaviour of the strains was studied.
The organisms (commercially obtained from ordered from the DSMZ, German collection of Microorganisms and cell cultures, Braunschweig) were firstly cultivated in shake flasks and in each of them in suiting, published standard minimal medium in order to characterize their growth under standard cultivation conditions (C. glutamicum: Preculture: BHI medium (37 g/L; Brain-Heart-Infusion; Becton Dickenson and Company, Heidelberg); Main culture pH 7: CGXII-MOPS medium (42 g/L MOPS buffer, 20 g/L (NH4)2SO4, 5 g/L urea (Fisher Scientific, Schwerte), 1 g/L KH2PO4, 1 g/L K2HPO4, 0.25 g/L MgSO4.7H2O (Merck, Darmstadt), 0.01 g/L CaCl2, and 10 g/L glucose (autoclaved separately). The pH was adjusted to 7 with 5 mol/L sodium hydroxide solution. […]

[3] = Solubility of oAB in fermentation broth slurry; type: physicochemical; conditions: fermentation broth of Corynebacterium glutamicum; room temperature, pH 4.5, fermentation broth
Protocol: An industrial sugar source was used for fermentation of Corynebacterium glutamicum. 100 ml of the broth with a content of 21.5 g/L glucose, 3.7 g/L lactate was mixed with 10 g anthranilic acid in a 250 ml laboratory reactor. […] Afterwards 9.12 g NaOH (32%) were added in 4 portions until a solution was present. […] Following […] HCl (37%) were added within 1 hour. By dosing of HCl first nucleation took place as from a pH-value of 5.8. The number of crystals increased during dosing. […] Afterwards the slurry was stirred for 1 hour. Finally the slurry was filtered.

[4] = Solubility of oAB in 1-dodecanol (solid liquid equilibrium); type: physicochemical
Protocol: The solubility of oAB in dodecanol was tested with increasing temperature.

## Nc1ccccc1C(=O)O [oAB, 2-aminobenzoic acid]
[1]; 7 g/L
  growth (OD600): prolonged lag-phase but finally same cell densities were reached
[1]; 15 g/L oAB (ammonium salt)
  lag-phase before growth was recovered: 34 to 48 h
[1]; 35 g/L oAB (ammonium salt)
  growth (OD600): growth inhibition
[1]; 80 g/L oAB (ammonium salt), over 54 hours
  growth (OD600): dying (lysis) of the cells
[2]; 3 g/L oAB, pH 7 (MOPS), 100-mL shake flask, 25 h
  growth (OD600): not inhibited
[2]; 5 g/L, pH 5 and pH 7, shake flask
  growth inhibition: No growth inhibition
[2]; Corynebacterium glutamicum ATCC13032
  tolerance for o-aminobenzoate: high tolerance
[3]
  solubility: ~4500 µg/mL (≈ 32.8 mM)
[4]; 3 wt %, room temperature
  solubility in 1-dodecanol: perfectly soluble
[4]; 40 ° C.
  solubility of oAB in 1-dodecanol (concentration): 4.88 wt %
[4]; 68 ° C.
  solubility of oAB in 1-dodecanol (concentration): 13.10 wt %
[4]; 93 ° C.
  solubility of oAB in 1-dodecanol (concentration): 23.05 wt %
[4]; 111 ° C.
  solubility of oAB in 1-dodecanol (concentration): 35.34 wt %
[4]; 119 ° C.
  solubility of oAB in 1-dodecanol (concentration): 44.22 wt %
[4]; 123 ° C.
  solubility of oAB in 1-dodecanol (concentration): 50.93 wt %
